The record followed here is patent US12281139B2, “Mogrosides, methods of obtaining the same, and uses” (The Coca-Cola Company, priority 2018, dated 2025).

Holding throughout (assay type): in vivo
Assay [1] can be described thus: Sensory evaluation of CC-00367 and CC-00371 vs Reb M 95% (trained sensory panel taste test, mock beverage samples, 400 ppm in water at 4° C.). The settings on record: mean panel score, from the time the sip is taken up to 1 minute.
Experiment in assay [2]: as above
The settings on record: mean panel score; for Bitter Aftertaste Intensity: bitter intensity 1 minute after tasting; for Overall Max Sweetness: from the time the sip is taken up to 1 minute; for Bitter Intensity In Mouth: maximum level of bitterness in mouth during 5 seconds; for Sweet Intensity In Mouth: maximum level of sweetness in mouth during 5 seconds; for Sweet Linger Intensity: sweet intensity 1 minute after tasting. The procedure: FIG. 1: Taste attribute comparison of CC-00371 and CC-00367 compared to Reb M 95% (all at 400 ppm) in water at 4° C.
(§1) The following mock beverage samples were prepared:
(§2) A trained sensory panel conducted the taste test. Samples were served at approximately 4° C. Panelists were instructed to take 1 sip of the sample, hold in mouth for 5 seconds, expectorate, and rate the given attributes. A 5 minute break was placed between each sample and panelists were instructed to cleanse their palates with at least 1 bite of unsalted cracker and 2 sips of filtered water. Samples were randomized within each session for each panelist.
(§3) The following attributes were evaluated: • Sweet taste intensity: maximum level of sweetness in mouth during 5 seconds • Bitter taste intensity: maximum level of bitterness in mouth during 5 seconds • Overall maximum sweet intensity: maximum sweet intensity experienced from the time the sip is taken up to 1 minute • Overall maximum bitter intensity: maximum sweet intensity experienced from the time the sip is taken up to 1 minute • Sweet linger intensity: sweet intensity 1 minute after tasting the sample • Bitter aftertaste intensity: bitter intensity 1 minute after tasting the sample
(§4) An ANOVA, with Sample as fixed effects and Panelist as random effects was used to determine significance between the samples for each attribute at the 90% and 95% Confidence Level, two-tailed. Fishers LSD was used to determine significant differences between mean scores.
The results are shown in Table 75 and depicted in FIG. 1: […]

The nature of assay [3]: Sensory evaluation of CC-00401 and CC-00403 vs 7% Sucrose (trained sensory panel taste test, mock beverage samples at 4° C.). Further details: Sweetness In Mouth / Sweetness Overall Max / Bitterness In Mouth / Bitterness Overall Max: scale not given here. The conditions noted are these: mean ± standard deviation, test sweeteners 400 ppm in water, reference 7% sucrose. As to the method:
as §1, §2, §3, §4

The nature of assay [4]: Sensory evaluation of CC-00436 vs 5% Sucrose (trained sensory panel taste test, mock beverages at 4° C.). Set-up: Sweetness In Mouth / Sweetness Overall Max / Bitterness In Mouth / Bitterness Overall Max: scale not given here. The settings on record: mean ± standard deviation, CC-00436 400 ppm in water, reference 5% sucrose. As to the method: The following mock beverages were prepared: A trained sensory panel conducted the taste test. Samples were served at approximately 4° C. Panelists were instructed to take 1 sip of the sample, hold in mouth for 5 seconds, expectorate, and rate the given attributes. A 5 minute break was placed between each sample and panelists were instructed to cleanse their palates with at least 1 bite of unsalted cracker and 2 sips of filtered water. Samples were randomized within each session for each panelist. The following attributes were evaluated: • Sweet taste intensity: maximum level of sweetness in mouth during 5 seconds • Bitter taste intensity: maximum level of bitterness in mouth during 5 seconds • Overall maximum sweet intensity: maximum sweet intensity experienced from the time the sip is taken up to 1 minute • Overall maximum bitter intensity: maximum sweet intensity experienced from the time the sip is taken up to 1 minute • Sweet linger intensity: sweet intensity 1 minute after tasting the sample • Bitter aftertaste intensity: bitter intensity 1 minute after tasting the sample

For `C[C@H](CC[C@@H](O[C@@H]1OC(CO[C@@H]2OC(CO)[C@@H](O)[C@H](O)C2O)C(O)[C@@H](O)C1O[C@@H]1OC(CO)[C@@H](O[C@@H]2OC(CO)[C@@H](O)[C@H](O)C2O)[C@H](O)C1O)C(C)(C)O)[C@H]1CC[C@@]2(C)C3CC=C4[C@@H](CC[C@H](O[C@@H]5OC(CO[C@@H]6OC(CO)[C@@H](O)[C@H](O)C6O)[C@@H](O)[C@H](O)C5O)C4(C)C)[C@]3(C)[C@H](O)C[C@]12C` (stereo partly drawn) [CC-00367, mogro-3-O-[β-D-glucopyranosyl (1→6)-β-D-glucopyranoside]-24-O-{[(β-D-glucopyranosyl-(1→4))-β-D-glucopyranosyl-(1→2)]-[β-D-glucopyranosyl-(1→6)]-β-D-glucopyranoside}], the “Overall Max Bitterness**” value in assay [1] is 2.2 B. In assay [2], the “Bitter Aftertaste Intensity” value worked out at 1.4 B, the “Overall Max Sweetness” value came out at 4.9 B, the “Bitter Intensity In Mouth” value came to 1.3 B and the “Sweet Intensity In Mouth” value was determined as 3.8 B. Besides, the “Sweet Linger Intensity” value in assay [2] was 2.6 B.

Take `C[C@H](CC[C@@H](O[C@@H]1O[C@H](CO[C@@H]2O[C@H](CO[C@@H]3O[C@H](CO)[C@@H](O)[C@H](O)[C@H]3O)[C@@H](O)[C@H](O)[C@H]2O)[C@@H](O)[C@H](O)[C@H]1O[C@@H]1O[C@H](CO)[C@@H](O)[C@H](O)[C@H]1O)C(C)(C)O)[C@H]1CC[C@@]2(C)[C@@H]3CC=C4[C@@H](CC[C@H](O[C@@H]5O[C@H](CO[C@@H]6O[C@H](CO)[C@@H](O)[C@H](O)[C@H]6O)[C@@H](O)[C@H](O)[C@H]5O)C4(C)C)[C@]3(C)[C@H](O)C[C@]12C` [CC-00403]: in assay [3], the “Bitterness In Mouth” value is reported as 2.6 ± 3.0, the “Bitterness Linger (~60 sec)” value was determined as 2.2 ± 3.4, the “Bitterness Overall Max” value worked out at 5.0 ± 3.4 and the “Sweetness In Mouth” value came out at 6.3 ± 1.4. In addition, in assay [3], the “Sweetness Linger (~60 sec)” value turned out to be 3.1 ± 2.5 and the “Sweetness Overall Max” value is listed as 7.0 ± 1.5.

`C[C@H](CC[C@@H](O[C@@H]1OC(CO[C@@H]2OC(CO)[C@@H](O)[C@H](O)C2O)C(O)[C@@H](O)C1O[C@@H]1OC(CO)[C@@H](O)[C@H](O)C1O)C(C)(C)O)[C@H]1CC[C@@]2(C)C3CC=C4[C@@H](CC[C@H](O[C@@H]5OC(CO[C@@H]6OC(CO[C@H]7OC(CO)[C@@H](O)[C@H](O)C7O)[C@@H](O)[C@H](O)C6O)[C@@H](O)[C@H](O)C5O)C4(C)C)[C@]3(C)[C@H](O)C[C@]12C` (stereo partly drawn) [CC-00436, mogro-3-O-[α-D-glucopyranosyl-(1→6)-β-D-glucopyranosyl (1→6)-β-D-glucopyranoside]-24-O-{[β-D-glucopyranosyl-(1→2)]-[β-D-glucopyranosyl-(1→6)]-β-D-glucopyranoside}]: in assay [4], the “Bitterness In Mouth” value worked out at 1.5 ± 1.9, the “Bitterness Linger (~60 sec)” value amounted to 0.7 ± 0.8, the “Bitterness Overall Max” value was determined as 2.1 ± 1.7 and the “Sweetness In Mouth” value stood at 5.2 ± 2.1. In addition, in assay [4], the “Sweetness Linger (~60 sec)” value is recorded as 2.9 ± 2.5 and the “Sweetness Overall Max” value is recorded as 5.7 ± 2.1.

Turning to `C[C@H](CC[C@@H](O[C@@H]1O[C@H](CO[C@@H]2O[C@H](CO)[C@@H](O)[C@H](O)[C@H]2O)[C@@H](O)[C@H](O)[C@H]1O[C@@H]1O[C@H](CO)[C@@H](O)[C@H](O)[C@H]1O)C(C)(C)O)[C@H]1CC[C@@]2(C)[C@@H]3CC=C4[C@@H](CC[C@H](O[C@@H]5O[C@H](CO[C@@H]6O[C@H](CO)[C@@H](O)[C@H](O)[C@H]6O)[C@@H](O)[C@H](O)[C@H]5O)C4(C)C)[C@]3(C)[C@H](O)C[C@]12C` [Mog V], the “Overall Max Bitterness**” value in assay [1] is recorded as 1.1. In assay [2], the “Bitter Aftertaste Intensity” value is listed as 0.4, the “Overall Max Sweetness” value amounted to 8.5, the “Bitter Intensity In Mouth” value was determined as 0.5 and the “Sweet Intensity In Mouth” value was 7.0. Further, in assay [2], the “Sweet Linger Intensity” value turned out to be 3.5.

As to `C=C1C[C@@]23CC[C@H]4[C@@](C)(CCC[C@@]4(C)C(=O)O[C@@H]4O[C@H](CO)[C@@H](O)[C@H](O[C@@H]5O[C@H](CO)[C@@H](O)[C@H](O)[C@H]5O)[C@H]4O[C@@H]4O[C@H](CO)[C@@H](O)[C@H](O)[C@H]4O)[C@@H]2CC[C@]1(O[C@@H]1O[C@H](CO)[C@@H](O)[C@H](O[C@@H]2O[C@H](CO)[C@@H](O)[C@H](O)[C@H]2O)[C@H]1O[C@@H]1O[C@H](CO)[C@@H](O)[C@H](O)[C@H]1O)C3` [Reb M 95%, rebaudioside M, reference compound], the “Overall Max Bitterness**” value in assay [1] is reported as 2.0 B. For the same molecule, in assay [2], the “Bitter Aftertaste Intensity” value was 1.7 B, the “Overall Max Sweetness” value amounted to 9.2 A, the “Bitter Intensity In Mouth” value is recorded as 1.0 B and the “Sweet Intensity In Mouth” value came to 8.0 A. For the same molecule, the “Sweet Linger Intensity” value in assay [2] was 5.3 A.

In the case of `OC[C@H]1O[C@@](CO)(O[C@H]2O[C@H](CO)[C@@H](O)[C@H](O)[C@H]2O)[C@@H](O)[C@@H]1O` [Sucrose, sucrose, reference compound], in assay [4], the “Bitterness In Mouth” value is recorded as 0.15 ± 0.2, the “Bitterness Linger (~60 sec)” value came out at 0.1 ± 0.1, the “Bitterness Overall Max” value worked out at 0.3 ± 0.3 and the “Sweetness In Mouth” value was 4.3 ± 2.1. Also, in assay [4], the “Sweetness Linger (~60 sec)” value was 1.6 ± 1.8 and the “Sweetness Overall Max” value was determined as 4.5 ± 1.9. Besides, in assay [3], the “Bitterness In Mouth” value is recorded as 2.3 ± 2.3, the “Bitterness Linger (~60 sec)” value is given as 0.8 ± 1.1, the “Bitterness Overall Max” value is listed as 2.8 ± 2.1 and the “Sweetness In Mouth” value was found to be 7.2 ± 0.9. Besides, in assay [3], the “Sweetness Linger (~60 sec)” value was found to be 2.1 ± 1.8 and the “Sweetness Overall Max” value was determined as 7.4 ± 0.8.

Take “mogro-3-O-[β-D-glucopyranosyl (1→6)-β-D-glucopyranoside]-24-O-{[β-D-glucopyranosyl-(1→2)]-[(β-D-glucopyranosyl-(1β3))-β-D-glucopyranosyl-(1β6)]-β-D-glucopyranoside} [CC-00371]”: the “Overall Max Bitterness**” value in assay [1] was 2.1 B. Moreover, in assay [2], the “Bitter Aftertaste Intensity” value worked out at 1.5 B, the “Overall Max Sweetness” value is recorded as 9.3 A, the “Bitter Intensity In Mouth” value was found to be 0.9 B and the “Sweet Intensity In Mouth” value came to 7.5 A. The “Sweet Linger Intensity” value in assay [2] is 5.8 A.
